“And” between values parts separate entries of the source, which are not always exact repeats. Equal entries are not always repeated.
Target: IRAK4 (Homo sapiens (Human), UniProt Q9NWZ3)
Assay: IRAK-4 AlphaScreen biochemical kinase assay
Details: 1 nM IRAK4, 1 mM ATP, 3.5 h at RT
Summary of the method: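 AlphaScreen read-out: streptavidin beads bind the biotinylated peptide and protein A beads bind the anti-phosphothreonine antibody, so energy transfer reports phosphorylation of the peptide. The kinase is human IRAK-4.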

Sequence of IRAK4 (Q9NWZ3 whole entry, species assumed): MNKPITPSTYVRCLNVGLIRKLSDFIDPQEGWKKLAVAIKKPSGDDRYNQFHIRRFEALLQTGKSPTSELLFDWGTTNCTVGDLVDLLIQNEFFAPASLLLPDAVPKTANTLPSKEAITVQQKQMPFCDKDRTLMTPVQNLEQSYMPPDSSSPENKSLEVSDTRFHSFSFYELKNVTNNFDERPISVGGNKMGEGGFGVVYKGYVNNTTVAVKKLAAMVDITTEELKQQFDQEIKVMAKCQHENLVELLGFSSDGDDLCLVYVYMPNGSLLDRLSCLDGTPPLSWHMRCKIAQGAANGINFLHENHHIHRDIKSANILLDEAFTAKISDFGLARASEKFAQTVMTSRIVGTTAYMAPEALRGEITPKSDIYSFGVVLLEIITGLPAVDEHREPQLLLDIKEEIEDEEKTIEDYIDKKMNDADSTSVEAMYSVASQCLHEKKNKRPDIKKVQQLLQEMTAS

SMILES | IC50
Cc1cc(-c2ccc3cnn(-c4cccc(C)n4)c3c2)nc(C(C)N)c1 (stereo not drawn) [Example 124, 1-(4-methyl-6-(1-(6-methylpyridin-2-yl)-1H-indazol-6-yl)pyridin-2-yl)ethanamine] | < 100 nM
Cc1cccc(-n2ncc3ccc(-c4cc(C(F)(F)F)cc(C(C)N)n4)cc32)n1 (stereo not drawn) [Example 125, 1-(6-(1-(6-methylpyridin-2-yl)-1H-indazol-6-yl)-4-(trifluoromethyl)pyridin-2-yl)ethanamine] | 100 to 1000 nM
CC(N)c1cccc(-c2ccc3cnn(-c4cccc(C(N)=O)n4)c3c2)n1 (stereo not drawn) [Example 126, 6-(6-(6-(1-aminoethyl)pyridin-2-yl)-1H-indazol-1-yl)picolinamide] | < 100 nM
CCC(N)c1cccc(-c2ccc3cnn(-c4cccc(C(F)(F)F)n4)c3c2)n1 (stereo not drawn) [Example 127, 1-(6-(1-(6-(trifluoromethyl)pyridin-2-yl)-1H-indazol-6-yl)pyridin-2-yl)propan-1-amine] | < 100 nM
NC(c1cccc(-c2ccc3cnn(-c4cccc(C(F)(F)F)n4)c3c2)n1)C1CC1 (stereo not drawn) [Example 128, cyclopropyl(6-(1-(6-(trifluoromethyl)pyridin-2-yl)-1H-indazol-6-yl)pyridin-2-yl)methanamine] | < 100 nM
CCCC(N)c1cccc(-c2ccc3cnn(-c4cccc(C)n4)c3c2)n1 (stereo not drawn) [Example 132, 1-(6-(1-(6-methylpyridin-2-yl)-1H-indazol-6-yl)pyridin-2-yl)butan-1-amine] | < 100 nM
Cc1csc(-n2ncc3ccc(-c4cccc(C(C)N)n4)cc32)n1 (stereo not drawn) [Example 134, 1-(6-(1-(4-methylthiazol-2-yl)-1H-indazol-6-yl)pyridin-2-yl)ethanamine] | 100 to 1000 nM
Cc1nc(-n2ncc3ccc(-c4cccc(C(C)N)n4)cc32)cs1 (stereo not drawn) [Example 136, 1-(6-(1-(2-methylthiazol-4-yl)-1H-indazol-6-yl)pyridin-2-yl)ethanamine] | 100 to 1000 nM
CC(N)c1cccc(-c2ccc3cnn(-c4cn(C)cn4)c3c2)n1 (stereo not drawn) [Example 138, 1-(6-(1-(1-methyl-1H-imidazol-4-yl)-1H-indazol-6-yl)pyridin-2-yl)ethanamine] | 100 to 1000 nM and 1000 to 10000 nM
C[C@@H](N)c1cccc(-c2ccc3cnn(-c4cccc(CO)n4)c3c2)n1 [Example 144, (R)-(6-(6-(6-(1-aminoethyl)pyridin-2-yl)-1H-indazol-1-yl)pyridin-2-yl)methanol] | < 100 nM
CCC[C@H](N)c1cccc(-c2ccc3cnn(-c4cccc(CO)n4)c3c2)n1 [Example 145, (S)-(6-(6-(6-(1-aminobutyl)pyridin-2-yl)-1H-indazol-1-yl)pyridin-2-yl)methanol] | < 100 nM
CCC[C@@H](N)c1cccc(-c2ccc3cnn(-c4cccc(CO)n4)c3c2)n1 [Example 146, (R)-(6-(6-(6-(1-aminobutyl)pyridin-2-yl)-1H-indazol-1-yl)pyridin-2-yl)methanol] | < 100 nM
Cc1cccc(-n2ncc3ccc(-c4cc(C(N)=O)ccn4)cc32)n1 [Example 201, 2-(1-(6-methylpyridin-2-yl)-1H-indazol-6-yl)isonicotinamide] | > 10000 nM
Cc1cccc(-n2ncc3ccc(-c4cncc(N(C)C)c4)cc32)n1 [Example 202, N,N-dimethyl-5-(1-(6-methylpyridin-2-yl)-1H-indazol-6-yl)pyridin-3-amine] | 100 to 1000 nM
Cc1cccc(-n2ncc3ccc(-c4cc(N)cnc4C)cc32)n1 [Example 204, 6-methyl-5-(1-(6-methylpyridin-2-yl)-1H-indazol-6-yl)pyridin-3-amine] | 100 to 1000 nM
Cc1cccc(-n2ncc3ccc(-c4cccc5c4CCNC5=O)cc32)n1 [Example 206, 5-(1-(6-methylpyridin-2-yl)-1H-indazol-6-yl)-3,4-dihydroisoquinolin-1(2H)-one] | > 10000 nM
CC(=O)c1cccc(-c2cc(F)c3cnn(-c4cccc(C(F)(F)F)n4)c3c2)n1 [Example 207, 1-(6-(4-fluoro-1-(6-(trifluoromethyl)pyridin-2-yl)-1H-indazol-6-yl)pyridin-2-yl)ethanone] | 1000 to 10000 nM
Nc1cc(-c2ccc3cnn(-c4cccc(C(F)(F)F)n4)c3c2)cc(C(=O)O)n1 [Example 213, 6-amino-4-(1-(6-(trifluoromethyl)pyridin-2-yl)-1H-indazol-6-yl)picolinic acid] | 1000 to 10000 nM
Cc1cccc(-n2ncc3c(C#N)cc(-c4cccc(C(C)N)n4)cc32)n1 (stereo not drawn) [Example 214, 6-(6-(1-aminoethyl)pyridin-2-yl)-1-(6-methylpyridin-2-yl)-1H-indazole-4-carbonitrile] | < 100 nM
Cc1cccc(-n2cc3c(CN)cc(-c4cccc(C(C)N)n4)cc3n2)n1 (stereo not drawn) [Example 215, 1-(6-(4-(aminomethyl)-2-(6-methylpyridin-2-yl)-2H-indazol-6-yl)pyridin-2-yl)ethanamine] | 1000 to 10000 nM
CC(c1cccc(-c2ccc3cnn(-c4cccc(C(F)(F)F)n4)c3c2)n1)N(C)C (stereo not drawn) [Example 216, N,N-dimethyl-1-(6-(1-(6-(trifluoromethyl)pyridin-2-yl)-1H-indazol-6-yl)pyridin-2-yl)ethanamine] | < 100 nM
CC(=O)NCc1cc(-c2cccc(C(C)N)n2)cc2nn(-c3cccc(C)n3)cc12 (stereo not drawn) [Example 217, N-((6-(6-(1-aminoethyl)pyridin-2-yl)-2-(6-methylpyridin-2-yl)-2H-indazol-4-yl)methyl)acetamide] | 1000 to 10000 nM
CC(=O)c1cccc(-c2cc(Cl)c3cnn(-c4cccc(C)n4)c3c2)n1 [Example 218, 1-(6-(4-chloro-1-(6-methylpyridin-2-yl)-1H-indazol-6-yl)pyridin-2-yl)ethanone] | 1000 to 10000 nM
C/C(=N/O)c1cccc(-c2ccc3cnc(-c4cccc(C(F)(F)F)n4)n3c2)n1 [Example 224, (Z)-1-(6-(3-(6-(trifluoromethyl)pyridin-2-yl)imidazo[1,5-a]pyridin-6-yl)pyridin-2-yl)ethanone oxime] | > 10000 nM

Other lines, results leading:

IC50 | SMILES
< 100 nM | CC(N)c1cccc(-c2ccc3cnn(-c4cccc(CO)n4)c3c2)n1 (stereo not drawn) [Example 123, (6-(6-(6-(1-aminoethyl)pyridin-2-yl)-1H-indazol-1-yl)pyridin-2-yl)methanol]
< 100 nM | CC(C)(N)c1cccc(-c2ccc3cnn(-c4cccc(C(F)(F)F)n4)c3c2)n1 [Example 129, 2-(6-(1-(6-(trifluoromethyl)pyridin-2-yl)-1H-indazol-6-yl)pyridin-2-yl)propan-2-amine]
100 to 1000 nM | Cc1cccc(-n2ncc3ccc(-c4cccc(C(C)O)n4)cc32)n1 (stereo not drawn) [Example 130, 1-(6-(1-(6-methylpyridin-2-yl)-1H-indazol-6-yl)pyridin-2-yl)ethanol]
< 100 nM | Cc1cccc(-n2ncc3ccc(-c4cccc(C(N)C5CC5)n4)cc32)n1 (stereo not drawn) [Example 131, cyclopropyl(6-(1-(6-methylpyridin-2-yl)-1H-indazol-6-yl)pyridin-2-yl)methanamine]
100 to 1000 nM | Cc1cnc(-n2ncc3ccc(-c4cccc(C(C)N)n4)cc32)s1 (stereo not drawn) [Example 135, 1-(6-(1-(5-methylthiazol-2-yl)-1H-indazol-6-yl)pyridin-2-yl)ethanamine]
100 to 1000 nM | CC(N)c1cccc(-c2ccc3cnn(-c4ccn(C)n4)c3c2)n1 (stereo not drawn) [Example 137, 1-(6-(1-(1-methyl-1H-pyrazol-3-yl)-1H-indazol-6-yl)pyridin-2-yl)ethanamine]
100 to 1000 nM | Cc1cccc(-n2ncc3ccc(-c4nc(CN)cs4)cc32)n1 [Example 139, (2-(1-(6-methylpyridin-2-yl)-1H-indazol-6-yl)thiazol-4-yl)methanamine]
100 to 1000 nM | Cc1cccc(-n2ncc3ccc(-c4ncc(CN)s4)cc32)n1 [Example 140, (2-(1-(6-methylpyridin-2-yl)-1H-indazol-6-yl)thiazol-5-yl)methanamine]
< 100 nM | Cc1cccc(-n2ncc3ccc(-c4cccc([C@@H](C)N)n4)cc32)n1 [Example 141, (R)-1-(6-(1-(6-methylpyridin-2-yl)-1H-indazol-6-yl)pyridin-2-yl)ethanamine]
< 100 nM | Cc1cccc(-n2ncc3ccc(-c4cccc([C@H](C)N)n4)cc32)n1 [Example 142, (S)-1-(6-(1-(6-methylpyridin-2-yl)-1H-indazol-6-yl)pyridin-2-yl)ethanamine]
< 100 nM | C[C@H](N)c1cccc(-c2ccc3cnn(-c4cccc(CO)n4)c3c2)n1 [Example 143, (S)-(6-(6-(6-(1-aminoethyl)pyridin-2-yl)-1H-indazol-1-yl)pyridin-2-yl)methanol]
1000 to 10000 nM | Cc1cccc(-n2ncc3ccc(-c4cncc(N5CCCC5)c4)cc32)n1 [Example 203, 1-(6-methylpyridin-2-yl)-6-(5-(pyrrolidin-1-yl)pyridin-3-yl)-1H-indazole]
> 10000 nM | Nc1cncc(-c2ccc3cnn(-c4cccc(C5CCCC5)n4)c3c2)c1 [Example 205, 5-(1-(6-cyclopentylpyridin-2-yl)-1H-indazol-6-yl)pyridin-3-amine]
> 10000 nM | O=C1CCc2ccc(-c3ccc4cnn(-c5cccc(C(F)(F)F)n5)c4c3)nc21 [Example 210, 2-(1-(6-(trifluoromethyl)pyridin-2-yl)-1H-indazol-6-yl)-5H-cyclopenta[b]pyridin-7(6H)-one]
1000 to 10000 nM | N#Cc1cccc(-c2ccc3cnn(-c4cccc(C(F)(F)F)n4)c3c2)n1 [Example 211, 6-(1-(6-(trifluoromethyl)pyridin-2-yl)-1H-indazol-6-yl)picolinonitrile]
1000 to 10000 nM | C/C(=N/O)c1cccc(-c2cc(Cl)c3cnn(-c4cccc(C)n4)c3c2)n1 [Example 219, (Z)-1-(6-(4-chloro-1-(6-methylpyridin-2-yl)-1H-indazol-6-yl)pyridin-2-yl)ethanone oxime]
100 to 1000 nM | Cc1cccc(-n2ncc3ccc(-c4cccc(C(C)N(C)C)n4)cc32)n1 (stereo not drawn) [Example 220, N,N-dimethyl-1-(6-(1-(6-methylpyridin-2-yl)-1H-indazol-6-yl)pyridin-2-yl)ethanamine]
1000 to 10000 nM | CC(=O)c1cccc(-c2cc(N(C)C(=O)OC(C)(C)C)c3cnn(-c4cccc(C)n4)c3c2)n1 [Example 225, tert-butyl (6-(6-acetylpyridin-2-yl)-1-(6-methylpyridin-2-yl)-1H-indazol-4-yl)(methyl)carbamate]

— patent US10246456B2, “IRAK4 inhibiting agents” (BIOGEN MA INC., priority 2014, dated 2019)
